Literature values as cited in patent US20130236944A1, “METHODS FOR THE INACTIVATION OF ANTIBIOTICS” (priority 2011, published 2013).

Conditions: after 180 days; Hektoen et al. (1995)

For CCn1cc(C(=O)O)c(=O)c2cc3c(cc21)OCO3 [oxolanic acid], the “degradation in marine sediments” value is listed as “no degradation”.

For CN(C)[C@@H]1C(O)=C(C(N)=O)C(=O)[C@@]2(O)C(O)=C3C(=O)c4c(O)cccc4[C@@](C)(O)[C@H]3[C@H](O)[C@@H]12 [oxytetracycline], the “degradation in marine sediments” value is listed as “no degradation”.
